# Assay results: the supplement of paper PMC11061612
# Columns and labels:
# Test in all cases: combination Emax (second highest fraction inhibited in the dose matrix, 72 h); higher = more inhibition; extreme values may be limits of the assay
# [1] = system: EPLC-272H (Other Solid Carcinomas)
# In short: (§1)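 Bliss excess equals the observed combination effect minus the expected value EA + EB − EA·EB, where EA and EB are the effects of each agent alone. Combination Emax is the second-highest inhibition within the matrix. Inhibition was scaled from CellTiter-Glo 2.0 luminescence, with 0 set by vehicle wells and 1 by blank wells, after 72 hours of two-drug dosing of cells plated in 1536-well plates.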
# [2] = system: MDA-MB-436 (Breast Carcinoma)
# In short: as §1
# AU565 (Breast Carcinoma) = system: AU565 (Breast Carcinoma)
# In short: as §1
# A204 (Rhabdomyosarcoma) = system: A204 (Rhabdomyosarcoma)
# In short: as §1
# [3] = system: NCI-H1651 (Lung Adenocarcinoma)
# In short: as §1
# [4] = system: SK-HEP-1 (Hepatocellular Carcinoma)
# In short: as §1
# [5] = system: CA46 (Burkitt's Lymphoma)
# In short: as §1
# [6] = system: JHU-022 (Oral Cavity Carcinoma)
# In short: as §1
# [7] = system: SW620 (Colorectal Carcinoma)
# In short: as §1
# EW-7 (Ewing's Sarcoma) = system: EW-7 (Ewing's Sarcoma)
# In short: as §1
# [8] = system: HCC1428 (Breast Carcinoma)
# In short: as §1
# [9] = system: CGTH-W-1 (Thyroid Gland Carcinoma)
# In short: as §1
# [10] = system: JIMT-1 (Breast Carcinoma)
# In short: as §1
# [11] = system: NCI-H1703 (Squamous Cell Lung Carcinoma)
# In short: as §1
# HCC70 (Breast Carcinoma) = system: HCC70 (Breast Carcinoma)
# In short: as §1
# [12] = system: UACC-812 (Breast Carcinoma)
# In short: as §1
# 5637 (Bladder Carcinoma) = system: 5637 (Bladder Carcinoma)
# In short: as §1
# [13] = system: NCI-H2228 (Lung Adenocarcinoma)
# In short: as §1
# [14] = system: KYSE-140 (Esophageal Squamous Cell Carcinoma)
# In short: as §1
# NB13 (Neuroblastoma) = system: NB13 (Neuroblastoma)
# In short: as §1
SMILES,combination Emax [1],combination Emax [2],combination Emax (AU565 (Breast Carcinoma)),combination Emax (A204 (Rhabdomyosarcoma)),combination Emax [3],combination Emax [4],combination Emax [5],combination Emax [6],combination Emax [7],combination Emax (EW-7 (Ewing's Sarcoma)),combination Emax [8],combination Emax [9],combination Emax [10],combination Emax [11],combination Emax (HCC70 (Breast Carcinoma)),combination Emax [12],combination Emax (5637 (Bladder Carcinoma)),combination Emax [13],combination Emax [14],combination Emax (NB13 (Neuroblastoma))
"CN(C)CCCOc1ccc(-c2ccc3ncc4c(c3c2)n(C2CCOCC2)c(=O)n4C)cn1 [AZD0156] + O=C(c1cc(Cc2n[nH]c(=O)c3ccccc23)ccc1F)N1CCN(C(=O)C2CC2)CC1 [Olaparib] (first compound max 3 µM, partner max 3 µM)",0.503,0.205,0.631,0.467,0.493,0.332,0.567,0.62,0.337,0.524,0.228,0.214,0.0881,0.582,0.359,0.261,0.439,0.439,0.113,–
"C=CCn1c(=O)c2cnc(Nc3ccc(N4CCN(C)CC4)cc3)nc2n1-c1cccc(C(C)(C)O)n1 [AZD1775] + C1CN(CCC1(C(=O)N[C@@H](CCO)C2=CC=C(C=C2)Cl)N)C3=NC=NC4=C3C=CN4 [Capivasertib] (first compound max 3 µM, partner max 3 µM)",0.834,0.41,0.833,0.529,0.794,0.503,0.843,0.71,0.8,0.896,0.524,0.211,0.76,0.911,0.754,0.466,0.957,0.59,0.844,–
"Cc1c2c(nn1C)CSCc1cc(n(C)n1)CSc1cc(c3ccccc3c1)OCCCc1c(C(=O)O)n(C)c3c-2c(Cl)ccc13 [AZD5991] + CCN(CCO)CCCOc1ccc2c(Nc3cc(CC(=O)Nc4cccc(F)c4)[nH]n3)ncnc2c1 [AZD2811] (first compound max 1 µM, 7x7, partner max 1 µM)",0.945,0.181,1,0.688,0.356,0.387,0.193,0.273,0.512,0.655,0.974,0.521,–,0.874,0.935,0.508,0.91,0.296,0.602,0.615
"NC1(C(=O)N[C@@H](CCO)c2ccc(Cl)cc2)CCN(c2ncnc3[nH]ccc23)CC1 [Capivasertib] + CC(=O)c1c(C)c2cnc(Nc3ccc(N4CCNCC4)cn3)nc2n(C2CCCC2)c1=O [Palbociclib] (first compound max 10 µM, 7x7, partner max 10 µM)",0.891,0.224,0.505,0.517,0.0542,0.673,0.411,0.471,0.473,0.657,0.18,0.349,0.246,0.609,0.657,–,0.387,0.506,0.78,0.392
"NC1(C(=O)N[C@@H](CCO)c2ccc(Cl)cc2)CCN(c2ncnc3[nH]ccc23)CC1 [Capivasertib] + CC(C)n1c(=O)n(C)c2cnc3cc(F)c(-c4ccc(OCCCN5CCCCC5)nc4)cc3c21 [AZD1390] (first compound max 10 µM, 7x7, partner max 0.3 µM)",0.632,0.267,0.535,0.382,0.149,0.318,0.23,0.413,0.227,0.587,0.186,0.357,0.202,0.548,0.707,–,0.336,0.46,0.732,0.254
"NC1(C(=O)N[C@@H](CCO)c2ccc(Cl)cc2)CCN(c2ncnc3[nH]ccc23)CC1 [Capivasertib] + CCN(CCO)CCCOc1ccc2c(Nc3cc(CC(=O)Nc4cccc(F)c4)[nH]n3)ncnc2c1 [AZD2811] (first compound max 10 µM, 7x7, partner max 1 µM)",0.708,0.264,0.819,0.489,0.203,0.533,0.362,0.446,0.328,0.885,0.465,0.354,0.284,0.678,0.745,–,0.572,0.533,0.829,0.534
"NC1(C(=O)N[C@@H](CCO)c2ccc(Cl)cc2)CCN(c2ncnc3[nH]ccc23)CC1 [Capivasertib] + COc1nnc2ccc(N3CCC(c4ccc(OCCN5CCN(C)C(=O)[C@H]5C)cc4)CC3)nn12 [AZD5153] (first compound max 10 µM, 7x7, partner max 1 µM)",0.944,0.0453,0.664,0.517,0.0984,0.497,0.644,0.486,0.427,0.828,0.571,0.408,0.446,0.733,0.876,–,0.627,0.52,0.857,0.775
"NC1(C(=O)N[C@@H](CCO)c2ccc(Cl)cc2)CCN(c2ncnc3[nH]ccc23)CC1 [Capivasertib] + C[C@@H]1COCCN1C2=NC(=NC(=C2)C3(CC3)[S@](=N)(=O)C)C4=C5C=CNC5=NC=C4 [AZD6738] (first compound max 10 µM, 7x7, partner max 10 µM)",0.885,0.372,0.684,0.467,0.581,0.318,0.474,0.631,0.545,1,0.318,0.398,0.612,0.928,0.817,–,0.564,0.575,0.867,0.896
"NC1(C(=O)N[C@@H](CCO)c2ccc(Cl)cc2)CCN(c2ncnc3[nH]ccc23)CC1 [Capivasertib] + Cn1cnc2c(F)c(Nc3ccc(Br)cc3Cl)c(C(=O)NOCCO)cc21 [Selumetinib] (first compound max 10 µM, 7x7, partner max 10 µM)",0.982,0.388,0.64,0.498,0.177,0.197,0.2,0.576,0.712,0.682,0.171,0.47,0.407,0.606,0.908,–,0.395,0.58,0.873,0.369
"CS(=O)(=O)CCNCc1ccc(-c2ccc3ncnc(Nc4ccc(OCc5cccc(F)c5)c(Cl)c4)c3c2)o1 [Lapatinib] + C[C@@H](Oc1cc(-c2cnn(C3CCNCC3)c2)cnc1N)c1c(Cl)ccc(F)c1Cl [Crizotinib] (first compound max 10 µM, 7x7, partner max 10 µM)",0.959,0.248,0.959,0.498,0.566,0.255,0.861,0.943,0.921,0.956,0.471,0.853,0.851,0.746,0.685,–,1,0.769,0.881,0.949
"CS(=O)(=O)CCNCc1ccc(-c2ccc3ncnc(Nc4ccc(OCc5cccc(F)c5)c(Cl)c4)c3c2)o1 [Lapatinib] + NC1(c2ccc(-c3nc4ccn5c(=O)[nH]nc5c4cc3-c3ccccc3)cc2)CCC1 [MK-2206] (first compound max 10 µM, 7x7, partner max 10 µM)",–,0.461,–,–,0.442,0.87,–,0.663,0.889,0.965,0.308,0.894,–,0.756,0.923,–,–,–,–,0.952
"CCc1c2c(nc3ccc(O)cc13)-c1cc3c(c(=O)n1C2)COC(=O)[C@]3(O)CC [SN-38] + O=C(c1cc(Cc2n[nH]c(=O)c3ccccc23)ccc1F)N1CCN(C(=O)C2CC2)CC1 [Olaparib] (first compound max 0.3 µM, 7x7, partner max 10 µM)",0.856,0.546,0.891,–,0.902,0.665,–,0.764,0.822,0.908,–,0.768,0.267,0.882,0.455,0.504,–,–,–,0.832
"CC1(C)CCC(CN2CCN(c3ccc(C(=O)NS(=O)(=O)c4ccc(NCC5CCOCC5)c([N+](=O)[O-])c4)c(Oc4cnc5[nH]ccc5c4)c3)CC2)=C(c2ccc(Cl)cc2)C1 [Venetoclax] + CS(=O)(=O)CCNCc1ccc(-c2ccc3ncnc(Nc4ccc(OCc5cccc(F)c5)c(Cl)c4)c3c2)o1 [Lapatinib] (first compound max 1 µM, 7x7, partner max 10 µM)",–,0.227,–,–,0.129,0.308,–,0.631,0.184,0.656,–,0.115,–,0.385,0.343,0.471,–,–,–,0.43
